Test results taken from patent US12110313B2, “Engineered bacterial ribosome compositions and methods” (ARIZONA BOARD OF REGENTS ON BEHALF OF ARIZONA STATE …, priority 2019, dated 2024).
Changes are numbered by the printed parent chain.

B1: Asp29: murine INF-β with replacement of Asn29 with Asp29 (protein, UniProt P01575 22-182, looked up, variant N29D)
Interferon beta: INYKQLQLQERTNIRKCQELLEQLNGKIDLTYRADFKIPMEMTEKMQKSYTAFAIQEMLQNVFLVFRNNFSSTGWNETIVVRLLDELHQQTVFLKTVLEEKQEERLTWEMSSTALHLKSYYWRVQRYLKLMKYNSYAWMVVRAEIFRNFLIIRRLTRNFQN
B2: Ala29: murine INF-β with replacement of Asn29 with Ala29 (protein, UniProt P01575 22-182, looked up, variant N29A)
Interferon beta: B1 Interferon beta with D29A
B3: non-glycosylated IFN-β: non-glycosylated murine interferon-β (protein, UniProt P01575 22-182, looked up)
Interferon beta: B1 Interferon beta with D29N
modifications: non-glycosylated

How the values were obtained:
wild-type ribosomes = assay: Incorporation of glycosylated amino acids into proteins from activated suppressor tRNAs by wild-type ribosomes; assay type: biochemical, E. coli; details: nonsense codon suppression with activated suppressor tRNA
Excerpt: FIG. 3 depicts glycosylated amino acids incorporated into proteins by wild-type E. coli ribosomes.
Many glycosylated amino acids can be incorporated into proteins in quite good yield from activated suppressor tRNAs by nonsense codon suppression employing wild-type ribosomes. However, in numerous experiments, when any of these was O- or N-acetylated at one or more positions, the result was virtually complete loss of the ability of the activated tRNAs to suppress nonsense codons. Accordingly, we have used O-GlcNAc-puromycin (FIG. 4) to select modified ribosomes capable of incorporating N-acetylglycosyl amino acids.
Post-translational protein glycosylation is both ubiquitous in nature and quite important. […] However, for whatever reason(s), neither O- nor N-acetylated glycosyl amino acids could be incorporated in good yield with wild-type ribosomes. We wish to select modified ribosomes capable of incorporating O- or N-acetylated glycosyl amino acids efficiently.

[1] = tested on: CD40 expression in RAW 264.7 mouse macrophage cells; assay: CD40 upregulation in RAW 264.7 cells by flow cytometry with PE-conjugated anti-mouse CD40 antibody; assay type: cell-based
Protocol: FIG. 6. Flow cytometry analysis of RAW 264.7 cells treated with murine IFNs and probed with PE-conjugated anti-mouse CD40 antibody. Upper left, 0.6 pg/mL glycosylated IFN; upper right, 6 pg/mL non-glycosylated IFN; lower left, 0.6 pg/mL non-glycosylated IFN; lower right, control lacking IFN.
These four modified INF-βs were tested in parallel with wild-type (fully glycosylated) mouse IFN-β for their activities. Our assay system uses RAW 264.7 mouse macrophage cells (ATCC TIB-71), which have been transformed using Abelson murine leukemia virus. […] CD40 upregulation was probed using a PE (phycoerythrin)-conjugated anti-mouse CD40 antibody. As shown (FIG. 6), this assay system has been used successfully to compare fully glycosylated and non-glycosylated murine INF-βs by flow cytometry.

antiviral activity = details: murine INF-β, modification at position 29; cited from earlier work

Row | Molecule | response in CD40 upregulation assay [1] | reduction of antiviral activity from wild-type (antiviral activity) | also measured
1 | N[C@@H](Cc1ccc(OC2O[C@H](CO)[C@@H](O[C@@H]3O[C@H](CO)[C@H](O)[C@H](O)[C@H]3O)[C@H](O)[C@H]2O)cc1)C(=O)O (stereo partly drawn) [O-lactosyltyrosine] | – | – | incorporation into proteins by wild-type ribosomes (wild-type ribosomes): incorporated into proteins quite well
2 | glycosylated IFN-β: fully glycosylated murine interferon-β | dose-dependent responses | – | potency relative to non-glycosylated IFN-β ([1]; CD40 upregulation): about 10 fold
3 | B1 | – | two-fold | –
4 | B2 | – | 10 fold | –
5 | B3 | dose-dependent responses | – | –
